According to patent publication US12534472B2, “Morphic forms of trilaciclib and methods of manufacture thereof” (Pharmacosmos Holding A/S, priority 2020, dated 2026):
Each block holds one compound with its values, some of them ahead of it.

Columns and labels:
Format in all cases: physicochemical
[1] = Thermodynamic solubility in water at pH 4.2; conditions: for Observations at T = 24 hours: 30 mg/mL in water at pH 4.2, agitated at ambient temperature ca. 24 hours; for Observations at T = 0 hours: 30 mg/mL in water at pH 4.2, ambient temperature
Procedure: Thermodynamic solubility was carried out for Pattern 1, Pattern 2/6 mixture, Pattern 3, amorphous di-HCl salts and Pattern 7 in water at pH 4.2. All samples were prepared at 30 mg/mL. Initial observations were made. The samples were agitated at ambient temperature for ca. 24 hours. The samples were collected and observations made. Observed solids were isolated via centrifugation. The mother liquor from the filtered sample was analyzed by HPLC. The pH 4.3 solution was prepared by diluting glacial acetic acid (11.6 mL) to 100 mL in deionized water, then adding sodium acetate (1.07 g) and acetic acid solution (5.9 mL) preparing up to 500 mL with deionized water; then the pH was adjusted to 4.2. The above technique was used to generate the images in FIG. 60.

[2] = Solvent solubility screen (approximate solubility)
Procedure: The solvent solubility experiment was carried out using various solvents to determine solid formation. A known volume aliquot (typically 5 volumes) of solvent was added to approximately 10 mg of amorphous Compound 1 as a dihydrochloride. Between each addition, the mixture was checked for dissolution and where no dissolution was apparent, the mixture was heated to ca. 40° C. and checked again. This procedure was continued until dissolution was observed or until 100 volumes of solvent had been added. All observed solids were isolated and analyzed by XRPD.
Examples of solvents include, but are not limited to, 1,4 dioxane, methanol, ethanol, propanol, butanol, butanone, ethoxyethanol, trifluoroethanol, methyl-THF, acetone, acetonitrile, anisole, chlorobenzene, DMSO, DMF, cumene, dichloromethane, ethyl acetate, ethylene glycol, heptane, isopropyl acetate, nitromethane, n-methylpyrrolidone, MIBK, t-BME, tetrahydrofuran, toluene, water and mixtures thereof. The above technique was used to generate the images in FIG. 8, FIG. 9, FIG. 10, FIG. 11, FIG. 12, FIG. 14.

[3] = Solubility of trilaciclib (general statement)

Observations at T = 24 hours [1]: Off-white slurry
Observations at T = 0 hours [1]: Off-white slurry
Structure (SMILES): CN1CCN(c2ccc(Nc3ncc4cc5n(c4n3)C3(CCCCC3)CNC5=O)nc2)CC1 [Pattern 7, 2′-((5-(4-methylpiperazin-1-yl)pyridin-2-yl)amino)-7′,8′-dihydro-6′H-spiro[cyclohexane-1,9′-pyrazino[1′,2′:1,5]pyrrolo[2,3-d]pyrimidin]-6′-one]

Approx. Solubility ([2]; 1,4-Dioxane, heated to ca. 40° C. where no dissolution): <5000 µg/mL
Approx. Solubility ([2]; 1-Butanol, heated to ca. 40° C. where no dissolution): <5000 µg/mL
Approx. Solubility ([2]; 2,2,2-Trifluoroethanol): >200000 µg/mL
Approx. Solubility ([2]; 2-Butanone, heated to ca. 40° C. where no dissolution): <5000 µg/mL
Approx. Solubility ([2]; 2-Ethoxyethanol, heated to ca. 40° C. where no dissolution): <5000 µg/mL
Approx. Solubility ([2]; 2-Methyl THF, heated to ca. 40° C. where no dissolution): <5000 µg/mL
Approx. Solubility ([2]; 2-Propanol, heated to ca. 40° C. where no dissolution): ca 5 mg/mL
Approx. Solubility ([2]; Acetone, heated to ca. 40° C. where no dissolution): <5000 µg/mL
Approx. Solubility ([2]; Acetonitrile/water (90:10% v/v), heated to ca. 40° C. where no dissolution): <5000 µg/mL
Approx. Solubility ([2]; Acetonitrile, heated to ca. 40° C. where no dissolution): <5000 µg/mL
Approx. Solubility ([2]; Anisole, heated to ca. 40° C. where no dissolution): <5000 µg/mL
Approx. Solubility ([2]; Chlorobenzene, heated to ca. 40° C. where no dissolution): <5000 µg/mL
Approx. Solubility ([2]; Cumene, heated to ca. 40° C. where no dissolution): ca 5 mg/mL
Approx. Solubility ([2]; DMF, heated to ca. 40° C. where no dissolution): <5000 µg/mL
Approx. Solubility ([2]; DMSO, heated to ca. 40° C. where no dissolution): ca 5 mg/mL
Approx. Solubility ([2]; Deionized Water): >200000 µg/mL
Approx. Solubility ([2]; Dichloromethane, heated to ca. 40° C. where no dissolution): <5000 µg/mL
Approx. Solubility ([2]; Ethanol/water (85:15% v/v), heated to ca. 40° C. where no dissolution): <5000 µg/mL
Approx. Solubility ([2]; Ethanol, heated to ca. 40° C. where no dissolution): ca 5 mg/mL
Approx. Solubility ([2]; Ethyl Acetate, heated to ca. 40° C. where no dissolution): <5000 µg/mL
Approx. Solubility ([2]; Ethylene glycol): 50000 µg/mL
Approx. Solubility ([2]; Heptane, heated to ca. 40° C. where no dissolution): <5000 µg/mL
Approx. Solubility ([2]; Isopropyl acetate, heated to ca. 40° C. where no dissolution): <5000 µg/mL
Approx. Solubility ([2]; Methanol/water (95:5% v/v)): 20000 µg/mL
Approx. Solubility ([2]; Methanol, heated to ca. 40° C. where no dissolution): ca 5 mg/mL
Approx. Solubility ([2]; Methyl isobutyl ketone, heated to ca. 40° C. where no dissolution): <5000 µg/mL
Approx. Solubility ([2]; N-Methylpyrrolidone, heated to ca. 40° C. where no dissolution): <5000 µg/mL
Approx. Solubility ([2]; Nitromethane): 33000 µg/mL
Approx. Solubility ([2]; Tetrahydrofuran/water (99:1% v/v), heated to ca. 40° C. where no dissolution): <5000 µg/mL
Approx. Solubility ([2]; Tetrahydrofuran, heated to ca. 40° C. where no dissolution): <5000 µg/mL
Approx. Solubility ([2]; Toluene, heated to ca. 40° C. where no dissolution): <5000 µg/mL
Approx. Solubility ([2]; t-Butylmethyl ether, heated to ca. 40° C. where no dissolution): <5000 µg/mL
Observations at T = 24 hours [1]: Yellow solution
Observations at T = 0 hours [1]: Yellow solution (dissolved
Structure (SMILES): CN1CCN(c2ccc(Nc3ncc4cc5n(c4n3)C3(CCCCC3)CNC5=O)nc2)CC1.Cl.Cl [Amorphous Di-HCl]

solubility in DMSO ([3]; DMSO): practically insoluble
solubility in water ([3]; water): not very soluble
Structure (SMILES): CN1CCN(c2ccc(Nc3ncc4cc5n(c4n3)C3(CCCCC3)CNC5=O)nc2)CC1 [trilaciclib, 2′-((5-(4-methylpiperazin-1-yl)pyridin-2-yl)amino)-7′,8′-dihydro-6′H-spiro[cyclohexane-1,9′-pyrazino[1′,2′:1,5]pyrrolo[2,3-d]pyrimidin]-6′-one]
